Measured values taken from PMC7037682, “Herb–Drug Interaction of Red Ginseng Extract and Ginsenoside Rc with Valsartan in Rats” (Molecules, 2020).

Key:
OATP1B3 [1] = target: T1, OATP1B3 (Homo sapiens, UniProt Q9NPD5); experiment: Inhibition of OATP1B3-mediated valsartan uptake in HEK293-OATP1B3 cells; format: cell-based; parameters: host or cells: HEK293; conditions: 5 μM valsartan, 5 min
T1 sequence (Q9NPD5 1-702): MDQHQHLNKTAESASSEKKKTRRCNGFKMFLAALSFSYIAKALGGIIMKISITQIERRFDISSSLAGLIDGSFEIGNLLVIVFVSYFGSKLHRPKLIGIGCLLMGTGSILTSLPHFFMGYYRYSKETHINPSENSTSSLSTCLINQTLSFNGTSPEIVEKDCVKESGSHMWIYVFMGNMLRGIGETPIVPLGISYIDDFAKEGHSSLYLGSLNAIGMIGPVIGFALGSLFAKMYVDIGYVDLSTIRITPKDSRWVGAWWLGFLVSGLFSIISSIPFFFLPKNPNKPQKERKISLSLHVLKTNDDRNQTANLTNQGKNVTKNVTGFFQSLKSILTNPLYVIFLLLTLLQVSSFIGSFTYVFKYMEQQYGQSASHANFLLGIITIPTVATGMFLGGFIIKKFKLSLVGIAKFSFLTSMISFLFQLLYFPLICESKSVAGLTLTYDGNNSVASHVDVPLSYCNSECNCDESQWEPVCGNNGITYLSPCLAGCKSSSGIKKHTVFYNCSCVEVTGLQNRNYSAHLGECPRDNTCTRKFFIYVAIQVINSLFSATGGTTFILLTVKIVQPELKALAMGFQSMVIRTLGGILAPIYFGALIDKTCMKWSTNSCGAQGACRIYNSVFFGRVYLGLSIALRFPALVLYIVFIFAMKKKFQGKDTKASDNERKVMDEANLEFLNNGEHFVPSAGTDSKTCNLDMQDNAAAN
Procedure: (§1) Transporter mediated uptake of probe substrates or valsartan was calculated by subtracting the uptake rate of probe substrates or valsartan into HEK293-mock cells from that into HEK293 cells expressing respective transporters.

OATP1B3 [2] = target: T1, OATP1B3; experiment: Inhibition of OATP1B3-mediated [3H]estradiol-17β-D-glucuronide uptake in HEK293-OATP1B3 cells
Procedure: (§2) HEK293 cells overexpressing the OCT1, OCT2, OAT1, OAT3, OATP1B1, and OATP1B3 transporters (HEK293-OCT1, -OCT2, -OAT1, -OAT3, -OATP1B1, and -OATP1B3, respectively) and HEK293-mock cells (Corning Life Sciences; Woburn, MA, USA) were used and characterized as previously described.
(§3) HEK293 cells overexpressing drug transporters and HEK293-mock cells were seeded in poly-D-lysine-coated 96-well plates at a density of 10^5 cells/well and were cultured in DMEM supplemented with 10% FBS, 5 mM non-essential amino acids, and 2 mM sodium butyrate in a humidified atmosphere with 8% CO2 at 37 °C.
(§4) To examine the effects of ginsenosides and typical inhibitors on transporter activity, aliquots (100 μL) of HBSS containing the probe substrate and ginsenosides or typical inhibitors were added to the cells after aspirating pre-incubated HBSS. The concentrations and probe substrates were as follows: 0.1 μM [^3H]MPP^+ for OCT1 and OCT2, 0.1 μM [^3H]PAH for OAT1, 0.1 μM [^3H]ES for OAT3 and OATP1B1, and 0.1 μM [^3H]EG for OATP1B3. […] Then the uptake of probe substrates into HEK293-mock cells and HEK293-OCT1, -OCT2, -OAT1, -OAT3, -OATP1B1, and -OATP1B3 cells in the presence and absence of typical inhibitor or each ginsenoside with previously described concentration range was measured for 5 min. Immediately after placing the plates on ice, the cells were washed three times with 100 μL of ice-cold HBSS, followed by lysing with 50 μL of 10% SDS solution and mixing with 150 μL of Optiphase cocktail solution (Perkin Elmer Inc., Boston, MA, USA). The radioactivity of the probe substrates in the cells was determined using a liquid scintillation counter.
(§5) In the inhibition studies, the uptake rate of substrate by HEK293 cells overexpressing the respective transporters was used as the control (100%) and the uptake rate of substrates in the presence of typical inhibitors or ginsenosides expressed as a percentage of the control. The inhibition data were fitted to an inhibitory effect model using Sigma plot (version 10.0; Systat Software Inc., San Jose, CA, USA). IC50 value indicated the half-maximal inhibitory concentration of the inhibitor.

[3] = parameters: method as in PMID 25297453, PMID 22139693, PMID 26725427; conditions: rats, cited from earlier work
[4] = Literature rifampin plasma concentration in rats after oral 20 mg/kg; format: in vivo, rat; conditions: oral rifampin 20 mg/kg, from literature plasma concentration and protein binding ref 23, 39, 40
OATP1B1 [5] = target: T2, OATP1B1 (Homo sapiens, UniProt Q9Y6L6); experiment: Inhibition of OATP1B1-mediated [3H]estrone-3-sulfate uptake in HEK293-OATP1B1 cells
T2 sequence (Q9Y6L6 1-691): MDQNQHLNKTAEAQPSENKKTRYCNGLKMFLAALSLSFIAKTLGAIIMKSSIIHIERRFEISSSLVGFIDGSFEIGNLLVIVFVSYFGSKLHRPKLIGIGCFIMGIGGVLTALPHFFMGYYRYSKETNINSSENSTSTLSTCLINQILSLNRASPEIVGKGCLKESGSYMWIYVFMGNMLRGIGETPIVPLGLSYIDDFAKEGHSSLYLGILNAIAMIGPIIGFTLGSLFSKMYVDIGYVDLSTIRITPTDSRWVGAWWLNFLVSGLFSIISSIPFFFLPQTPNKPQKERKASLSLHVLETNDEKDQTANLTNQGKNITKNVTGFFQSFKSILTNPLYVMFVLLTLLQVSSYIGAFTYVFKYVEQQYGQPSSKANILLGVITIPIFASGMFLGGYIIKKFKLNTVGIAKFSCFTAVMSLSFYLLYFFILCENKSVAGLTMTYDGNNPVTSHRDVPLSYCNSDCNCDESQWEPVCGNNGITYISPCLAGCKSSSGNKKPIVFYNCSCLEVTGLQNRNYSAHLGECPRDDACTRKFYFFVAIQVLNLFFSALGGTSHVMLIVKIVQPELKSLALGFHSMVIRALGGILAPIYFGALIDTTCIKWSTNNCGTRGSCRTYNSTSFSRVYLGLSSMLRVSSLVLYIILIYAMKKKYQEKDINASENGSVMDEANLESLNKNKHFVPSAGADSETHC
Procedure: as §2, §3, §4, §5

OATP1B1 [6] = target: T2, OATP1B1; experiment: Inhibition of OATP1B1-mediated valsartan uptake in HEK293-OATP1B1 cells; format: cell-based; parameters: host or cells: HEK293; conditions: 5 μM valsartan, 5 min
Procedure: as §1

[7] = parameters: method as in PMID 25297453, PMID 22139693, PMID 26725427; conditions: rats ref 23, 39, 40; cited from earlier work

CO[C@H]1/C=C/O[C@@]2(C)Oc3c(C)c(O)c4c(O)c(c(/C=N/N5CCN(C)CC5)c(O)c4c3C2=O)NC(=O)/C(C)=C\C=C\[C@H](C)[C@H](O)[C@@H](C)[C@@H](O)[C@@H](C)[C@H](OC(C)=O)[C@@H]1C [Rifampin, rifampin, reference compound]
IC50 (OATP1B3 [1]): 3.6 µM | IC50 (OATP1B3 [2]): 0.81 µM | Cmax of rifampin ([3]; oral rifampin 20 mg/kg ref 23, 39, 40): 15700 to 24500 ng/mL | plasma concentration of rifampin ([3]; oral rifampin 20 mg/kg, for 12 h ref 23, 39, 40): over 5 μg/mL | unbound concentration of rifampin [4]: 4.7 to 22.9 µM | IC50 (OATP1B1 [5]): 28.6 µM | IC50 (OATP1B1 [6]): 13.8 µM | protein binding of rifampin [7]: 23.1%
